US20160376286A1, “Pyrimidin-4-one derivatives and their use in the tratement, amelioration or prevention of a viral disease” (priority 2011, published 2016)
Like-named read-outs stand apart in the source and are kept apart here.

Test system: influenza A virus A/Aichi/2/68 (H3N2)
Test: Cytopathic effect (CPE) assay H3N2 in MDCK cells
Type: cell-based, influenza A virus (A/Aichi/2/68 (H3N2)); MDCK cells
Settings: for inhibition at 50 µM: Influenza A virus, H3N2, MDCK, read-out: CPE H3N2 reduction (%)
Method: A possible measure of the […] antiviral activity of the compounds having the formula I or II is the CPE assay disclosed herein. […] In this connection, the reduction in the virus-mediated cytopathic effect (CPE) upon treatment with the compounds was calculated as follows: The cell viability of infected-treated and uninfected-treated cells was determined using an ATP-based cell viability assay (Promega). The response in relative luminescent units (RLU) of infected-untreated samples was subtracted from the response (RLU) of the infected-treated samples and then normalized to the viability of the corresponding uninfected sample resulting in % CPE reduction.
The influenza A virus (IAV) was obtained from American Tissue Culture Collection (A/Aichi/2/68 (H3N2); VR-547). Virus stocks were prepared by propagation of virus on Mardin-Darby canine kidney (MDCK; ATCC CCL-34) cells and infectious titres of virus stocks were determined by the 50% tissue culture infective dose (TCID50) analysis as described in Reed, L. J., and H. Muench. 1938, Am. J. Hyg. 27:493-497.
MDCK cells were seeded in 96-well plates at 2×10^4 cells/well using DMEM/Ham's F-12 (1:1) medium containing 10% foetal bovine serum (FBS), 2 mM L-glutamine and 1% antibiotics (all from PAA). Until infection the cells were incubated for 5 hrs at 37° C., 5.0% CO2 to form a -80% confluent monolayer on the bottom of the well. Each test compound was dissolved in DMSO and generally tested at 25 μM and 250 μM. In those cases where the compounds were not soluble at that concentration they were tested at the highest soluble concentration. The compounds were diluted in infection medium (DMEM/Ham's F-12 (1:1) containing 5 μg/ml trypsin, and 1% antibiotics) for a final plate well DMSO concentration of 1%. The virus stock was diluted in infection medium (DMEM/Ham's F-12 (1:1) containing 5 μg/m1Trypsin, 1% DMSO, and 1% antibiotics) to a theoretical multiplicity of infection (M01) of 0.05.
After removal of the culture medium and one washing step with PBS, virus and compound were added together to the cells. In the wells used for cytotoxicity determination (i.e. in the absence of viral infection), no virus suspension was added. Instead, infection medium was added. Each treatment was conducted in two replicates. After incubation at 37° C., 5% CO2 for 48 hrs, each well was observed microscopically for apparent cytotoxicity, precipitate formation, or other notable abnormalities. Then, cell viability was determined using
CellTiter-Glo luminescent cell viability assay (Promega). The supernatant was removed carefully and 65 μl of the reconstituted reagent were added to each well and incubated with gentle shaking for 15 min at room temperature. Then, 60 μl of the solution was transferred to an opaque plate and luminescence (RLU) was measured using Synergy HT plate reader (Biotek).
Relative cell viability values of uninfected-treated versus uninfected-untreated cells were used to evaluate cytotoxicity of the compounds. Substances with a relative viability below 80% at the tested concentration were regarded as cytotoxic and retested at lower concentrations.
Reduction in the virus-mediated cytopathic effect (CPE) upon treatment with the compounds was calculated as follows: The response (RLU) of infected-untreated samples was subtracted from the response (RLU) of the infected-treated samples and then normalized to the viability of the corresponding uninfected sample resulting in % CPE reduction.

Cl.O=C(NO)c1cc(N2CCCCC2)ccn1
CPE H3N2 reduction (%) (activity conc 5): −4.1%

CCONC(=O)c1cc(N2CCOCC2)ccn1.Cl
CPE H3N2 reduction (%) (activity conc 50 (μM)): 1.3%

CCONC(=O)c1cc(N)ccn1.Cl
CPE H3N2 reduction (%) (activity conc 50 (μM)): 10.5%

CCONC(=O)c1ccccn1
CPE H3N2 reduction (%) (activity conc 50 (μM)): 12.5%

CCONC(=O)c1ccc2ccccc2n1
CPE H3N2 reduction (%) (activity conc 50 (μM)): −2.2%

CCONC(=O)c1ccc(-c2cccc(CN(C)CCCc3ccccc3)c2)cn1.Cl
CPE H3N2 reduction (%) (activity conc 20): 1.6%

CCONC(=O)c1cc(NCc2cccc(OCc3ccccc3)c2)ccn1.Cl
CPE H3N2 reduction (%) (activity conc 1): 1.2%

O=C(NOCc1ccccc1)c1ccc(N2CCCC2)cn1
CPE H3N2 reduction (%) (activity conc 20): −8.7%

O=C(c1ccc(N2CCCC2)cn1)N(Cc1ccccc1)OCc1ccccc1
CPE H3N2 reduction (%) (activity conc 5): −2.7%

O=C(c1cc2ccccc2cn1)N(Cc1ccccc1)OCc1ccccc1
CPE H3N2 reduction (%) (activity conc 5): 1.3%

Cc1cccc(-c2ccc(C(=O)N(O)Cc3ccccc3)nc2)c1
CPE H3N2 reduction (%) (activity conc 10): 15.5%

O=C(NOCc1ccccc1)c1cc2ccccc2cn1
CPE H3N2 reduction (%) (activity conc 5): −1.5%

O=C(c1cc2ccccc2cn1)N(O)CCc1ccccc1
CPE H3N2 reduction (%) (activity conc 20): −1.8%

O=C(c1cc(N2CCCCC2)ccn1)N(O)CCCc1ccccc1
CPE H3N2 reduction (%) (activity conc 2): 7.7%

CC(C)c1cccc(-c2ccc(C(=O)NO)nc2)c1
CPE H3N2 reduction (%) (activity conc 2): −2.1%

O=C(c1cc2ccccc2cn1)N(O)CCCc1ccccc1
CPE H3N2 reduction (%) (activity conc 2): 4.4%

CC(C)c1cccc(-c2ccc(C(=O)N(O)CCc3ccccc3)nc2)c1
CPE H3N2 reduction (%) (activity conc 2): 2.1%

O=C(c1ccc(N2CCCCC2)cn1)N(O)Cc1ccccc1
CPE H3N2 reduction (%) (activity conc 5): −3.4%

O=C(c1cc(NS(=O)(=O)Cc2ccccc2)ccn1)N(O)Cc1ccccc1
CPE H3N2 reduction (%) (activity conc 50 (μM)): 6.2%

O=C(c1cc(-c2ccccc2)ccn1)N(O)Cc1ccccc1
CPE H3N2 reduction (%) (activity conc 10): −9.3%

O=C(NO)c1cc(N2CCOCC2)ccn1
CPE H3N2 reduction (%) (activity conc 50 (μM)): −7.1%

O=C(c1cc(NS(=O)(=O)c2ccccc2)ccn1)N(O)Cc1ccccc1
CPE H3N2 reduction (%) (activity conc 50 (μM)): −5.2%

CN(Cc1ccccc1)c1ccnc(C(=O)N(O)Cc2ccccc2)c1
CPE H3N2 reduction (%) (activity conc 5): 3.8%

O=C(c1ccc(-c2ccccc2)cn1)N(O)Cc1ccccc1
CPE H3N2 reduction (%) (activity conc 12): 13.4%

O=C(NO)c1ccc(-c2ccccc2)cn1
CPE H3N2 reduction (%) (activity conc 12): 21.7%

O=C(NO)c1cc(-c2ccc(Cl)cc2)ccn1
CPE H3N2 reduction (%) (activity conc 5): 26.6%

C[C@@H]1CN(c2ccnc(C(=O)N(O)Cc3ccccc3)c2)C[C@H](C)O1
CPE H3N2 reduction (%) (activity conc 50 (μM)): 10.5%

O=C(c1cc(-c2ccc(Cl)cc2)ccn1)N(O)Cc1ccccc1
CPE H3N2 reduction (%) (activity conc 2): −6.7%

O=C(c1cc(-c2ccc(Cl)c(Cl)c2)ccn1)N(O)Cc1ccccc1
CPE H3N2 reduction (%) (activity conc 5): 8.1%

NC(=O)c1cccc(-c2ccnc(C(=O)N(O)Cc3ccccc3)c2)c1
CPE H3N2 reduction (%) (activity conc 5): −2.7%

CN(C)C1CCN(c2ccnc(C(=O)N(O)Cc3ccccc3)c2)CC1
CPE H3N2 reduction (%) (activity conc 50 (μM)): 12.3%

O=C(c1cc(-c2ccccc2)ccn1)N(O)Cc1ccc(F)cc1
CPE H3N2 reduction (%) (activity conc 1): −3.2%

O=C(c1cc(N2CCCC(F)(F)C2)ccn1)N(O)Cc1ccccc1
CPE H3N2 reduction (%) (activity conc 50 (μM)): 8.9%

CN1CCN(c2ccnc(C(=O)N(O)Cc3ccccc3)c2)CC1
CPE H3N2 reduction (%) (activity conc 50 (μM)): 2.4%

O=C(c1cc(N2CCC(N3CCCC3)CC2)ccn1)N(O)Cc1ccccc1
CPE H3N2 reduction (%) (activity conc 50 (μM)): 10.7%

CC(C)(C)OC(=O)NC1CCN(c2ccnc(C(=O)N(O)Cc3ccccc3)c2)CC1
CPE H3N2 reduction (%) (activity conc 50 (μM)): 8.3%

CC(C)(C)OC(=O)N1CC=C(c2ccnc(C(=O)N(O)Cc3ccccc3)c2)CC1
CPE H3N2 reduction (%) (activity conc 5): 1.2%

CN(C)CCNC(=O)c1cccc(-c2ccnc(C(=O)N(O)Cc3ccccc3)c2)c1
CPE H3N2 reduction (%) (activity conc 50 (μM)): 8.9%

O=C(c1cc(N2CCC(N3CCCCC3)CC2)ccn1)N(O)Cc1ccccc1
CPE H3N2 reduction (%) (activity conc 50 (μM)): 18.8%

NC(=O)c1ccc(-c2ccnc(C(=O)N(O)Cc3ccccc3)c2)cc1
CPE H3N2 reduction (%) (activity conc 5): −2.5%

CN(C)S(=O)(=O)c1cccc(-c2ccnc(C(=O)N(O)Cc3ccccc3)c2)c1
CPE H3N2 reduction (%) (activity conc 5): −1.8%

NC1CCN(c2ccnc(C(=O)N(O)Cc3ccccc3)c2)CC1
CPE H3N2 reduction (%) (activity conc 50 (μM)): 3.2%

O=C(c1cc(N2CCC3(CC2)OCCO3)ccn1)N(O)Cc1ccccc1
CPE H3N2 reduction (%) (activity conc 50 (μM)): 9.5%

CN(C)C(=O)c1cccc(-c2ccnc(C(=O)N(O)Cc3ccccc3)c2)c1
CPE H3N2 reduction (%) (activity conc 50 (μM)): 5.3%

O=C(c1cc(-c2cccc(CO)c2)ccn1)N(O)Cc1ccccc1
CPE H3N2 reduction (%) (activity conc 5): 7.7%

CNC(=O)c1cccc(-c2ccnc(C(=O)N(O)Cc3ccccc3)c2)c1
CPE H3N2 reduction (%) (activity conc 5): −7.5%

CC(C)(C)OC(=O)N1CCN(c2ccnc(C(=O)N(O)Cc3ccccc3)c2)CC1
CPE H3N2 reduction (%) (activity conc 50 (μM)): 34%

CC1(C)C=C(c2ccnc(C(=O)N(O)Cc3ccccc3)c2)CC(C)(C)N1
CPE H3N2 reduction (%) (activity conc 50 (μM)): 2.8%

Cl.O=C(c1cc(C2CCNCC2)ccn1)N(O)Cc1ccccc1
CPE H3N2 reduction (%) (activity conc 50 (μM)): −1.4%

Cl.O=C(NO)c1cc(NS(=O)(=O)Cc2ccc(F)cc2)ccn1
CPE H3N2 reduction (%) (activity conc 50 (μM)): −1.4%

Cl.Cl.O=C(c1cc(N2CCNCC2)ccn1)N(O)Cc1ccccc1
CPE H3N2 reduction (%) (activity conc 50 (μM)): −4.5%

Cl.O=C(NO)c1cc(NS(=O)(=O)Cc2cccc(F)c2)ccn1
CPE H3N2 reduction (%) (activity conc 50 (μM)): −2.4%

CN(c1ccnc(C(=O)NO)c1)S(=O)(=O)Cc1ccccc1
CPE H3N2 reduction (%) (activity conc 5): −1.7%

O=C(c1cc(C2=CCC3(CC2)OCCO3)ccn1)N(O)Cc1ccccc1
CPE H3N2 reduction (%) (activity conc 50 (μM)): 5.4%

COC1=CC=C(c2ccnc(C(=O)N(O)Cc3ccccc3)c2)CC1
CPE H3N2 reduction (%) (activity conc 2): −2.5%

CC(C)(C)OC(=O)N1CCC(c2ccnc(C(=O)N(O)Cc3ccccc3)c2)CC1
CPE H3N2 reduction (%) (activity conc 20): 31.3%

CC(C)(C)OC(=O)N1C=C(c2ccnc(C(=O)N(O)Cc3ccccc3)c2)CCC1
CPE H3N2 reduction (%) (activity conc 2): 3.9%

CC(C)(C)OC(=O)N1CCC=C(c2ccnc(C(=O)N(O)Cc3ccccc3)c2)C1
CPE H3N2 reduction (%) (activity conc 5): 10.2%

O=C(c1cc(C2=CCCCC2)ccn1)N(O)Cc1ccccc1
CPE H3N2 reduction (%) (activity conc 1): 3.4%

Cl.O=C(c1cc(N2CCC(F)(F)CC2)ccn1)N(O)Cc1ccccc1
CPE H3N2 reduction (%) (activity conc 50 (μM)): −3.2%

CN1CC=C(c2ccnc(C(=O)N(O)Cc3ccccc3)c2)CC1
CPE H3N2 reduction (%) (activity conc 50 (μM)): 10.6%

Cl.O=C(NO)c1cc(NS(=O)(=O)Cc2cc(Cl)cc(Cl)c2)ccn1
CPE H3N2 reduction (%) (activity conc 20): 28.9%

Cl.O=C(c1cc(N2CCC(F)(F)C2)ccn1)N(O)Cc1ccccc1
CPE H3N2 reduction (%) (activity conc 20): 4.6%

CC(C)(C)OC(=O)N1C2C=C(c3ccnc(C(=O)N(O)Cc4ccccc4)c3)CC1CC2 (centres unmarked)
CPE H3N2 reduction (%) (activity conc 2): −5.3%

O=C(NO)c1cc(NS(=O)(=O)Cc2cc(Cl)cc(Cl)c2)ccn1
inhibition at 50 µM (activity conc 50 (μM)): 9.3%

O=C(NO)c1cc(NS(=O)(=O)Cc2cccc(C(F)(F)F)c2)ccn1
inhibition at 50 µM (activity conc 50 (μM)): -5.8%

O=C(NO)c1cc(NS(=O)(=O)Cc2ccccc2Cl)ccn1
inhibition at 50 µM (activity conc 50 (μM)): -1.5%

O=C(c1cc(N2CCCCC2)cc[n+]1[O-])N(O)Cc1ccccc1
CPE H3N2 reduction (%) (activity conc 5): −1.83%

O=C(NO)c1cc(NS(=O)(=O)Cc2ccc(Cl)cc2)ccn1
inhibition at 50 µM (activity conc 50 (μM)): -3.88%

O=C(NO)c1cc(NS(=O)(=O)Cc2cccc(Cl)c2)ccn1
inhibition at 50 µM: 60.1%

O=C(NO)c1cc(NS(=O)(=O)Cc2cccc(Br)c2)ccn1
inhibition at 50 µM (activity conc 50 (μM)): 2.29%
